Experimental data taken from ChEMBL document CHEMBL4371033, “Highly Potent and Selective Plasmin Inhibitors Based on the Sunflower Trypsin Inhibitor-1 Scaffold Attenuate Fibrinolysis in Plasma” (J Med Chem, 2019).
Residues, ends and D or L forms follow the SMILES beside them.

Experiments:
Serine protease 1 = target: T1, Serine protease 1 (Bos taurus, UniProt P00760); experiment: Inhibition of bovine cationic trypsin using Bz-FVR-pNA as substrate after 30 mins
T1 sequence (P00760 whole entry): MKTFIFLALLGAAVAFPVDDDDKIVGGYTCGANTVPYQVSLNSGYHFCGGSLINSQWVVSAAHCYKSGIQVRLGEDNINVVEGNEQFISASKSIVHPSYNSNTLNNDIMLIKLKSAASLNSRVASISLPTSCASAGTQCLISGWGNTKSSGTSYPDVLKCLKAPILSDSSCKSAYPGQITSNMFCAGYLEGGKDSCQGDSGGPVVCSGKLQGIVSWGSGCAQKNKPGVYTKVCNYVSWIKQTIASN

Homo sapiens [1] = organism: Homo sapiens; experiment: Selectivity index, ratio of IC50 for inhibition of activated beta-factor 11 (unknown origin) to IC50 for Inhibition of human plasmin
Coagulation factor XII = target: T2, Coagulation factor XII (Homo sapiens, UniProt P00748); experiment: Inhibition of activated beta-factor 12 (unknown origin) using Ac-QRFR-pNA as substrate after 30 mins relative to untreated control
T2 sequence (P00748 whole entry): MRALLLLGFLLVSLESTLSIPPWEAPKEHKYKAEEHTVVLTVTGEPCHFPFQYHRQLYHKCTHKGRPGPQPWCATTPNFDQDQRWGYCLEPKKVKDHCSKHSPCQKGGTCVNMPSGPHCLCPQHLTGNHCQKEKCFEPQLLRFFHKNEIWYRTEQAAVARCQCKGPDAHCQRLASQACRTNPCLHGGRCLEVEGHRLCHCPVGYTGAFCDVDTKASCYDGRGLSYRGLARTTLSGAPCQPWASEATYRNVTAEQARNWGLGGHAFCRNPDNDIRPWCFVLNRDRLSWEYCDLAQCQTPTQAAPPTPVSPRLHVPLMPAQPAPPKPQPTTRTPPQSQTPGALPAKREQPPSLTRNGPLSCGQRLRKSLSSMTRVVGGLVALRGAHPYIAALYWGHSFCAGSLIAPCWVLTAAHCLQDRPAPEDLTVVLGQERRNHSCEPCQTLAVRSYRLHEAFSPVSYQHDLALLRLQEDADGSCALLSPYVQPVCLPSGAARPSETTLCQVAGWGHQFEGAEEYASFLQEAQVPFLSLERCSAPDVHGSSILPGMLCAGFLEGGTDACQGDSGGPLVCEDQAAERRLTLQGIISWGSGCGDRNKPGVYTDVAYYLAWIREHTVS

Homo sapiens [2] = organism: Homo sapiens; experiment: Selectivity index, ratio of IC50 for inhibition of activated factor 10 (unknown origin) to IC50 for Inhibition of human plasmin
Homo sapiens [3] = organism: Homo sapiens; experiment: Selectivity index, ratio of IC50 for inhibition of matriptase (unknown origin) to IC50 for Inhibition of human plasmin
Coagulation factor X = Coagulation factor X (Homo sapiens, UniProt P00742); experiment: Inhibition of activated factor 10 (unknown origin) using Ac-QRSR-pNA as substrate after 30 mins relative to untreated control
Homo sapiens [4] = organism: Homo sapiens; experiment: Selectivity index, ratio of IC50 for inhibition of human thrombin to IC50 for Inhibition of human plasmin
Homo sapiens [5] = organism: Homo sapiens; experiment: Selectivity index, ratio of IC50 for inhibition of plasma KLK (unknown origin) to IC50 for Inhibition of human plasmin

Sequence of Coagulation factor X (P00742 41-179 limits assumed): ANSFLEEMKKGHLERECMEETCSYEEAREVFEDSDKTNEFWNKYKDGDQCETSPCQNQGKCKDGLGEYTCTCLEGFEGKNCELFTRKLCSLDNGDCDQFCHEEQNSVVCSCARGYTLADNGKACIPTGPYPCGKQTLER
Sequence of Coagulation factor X (P00742 235-488 limits assumed): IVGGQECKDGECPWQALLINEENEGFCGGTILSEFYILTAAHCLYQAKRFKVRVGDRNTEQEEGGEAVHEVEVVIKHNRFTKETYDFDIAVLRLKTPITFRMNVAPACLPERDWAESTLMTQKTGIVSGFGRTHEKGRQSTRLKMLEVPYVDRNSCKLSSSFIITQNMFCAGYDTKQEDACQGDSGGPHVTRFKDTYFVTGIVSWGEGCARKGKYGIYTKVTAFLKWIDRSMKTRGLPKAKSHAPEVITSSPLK

With `CC[C@H](C)[C@@H]1NC(=O)[C@@H]2CCCN2C(=O)[C@@H]2CCCN2C(=O)[C@H](CCCCN)NC(=O)[C@H](CO)NC(=O)[C@H](CCCCN)NC(=O)[C@H](Cc2ccc(O)cc2)NC(=O)[C@@H]2CSSC[C@H](NC1=O)C(=O)N[C@@H](Cc1ccccc1)C(=O)N1CCC[C@H]1C(=O)N[C@@H](CC(=O)O)C(=O)NCC(=O)N[C@@H](CCCNC(=N)N)C(=O)N2` (HELM PEPTIDE1{C.F.P.D.G.R.C.Y.K.S.K.P.P.I}$PEPTIDE1,PEPTIDE1,1:R3-7:R3|PEPTIDE1,PEPTIDE1,1:R1-14:R2$$$V2.0) the Ki (Serine protease 1) was 0.16 µM, the Ratio IC50 (Homo sapiens [1]) was greater than 1e+06 and the Ki (Coagulation factor XII) was greater than 50 µM. The Ratio IC50 (Homo sapiens [2]) was greater than 1e+06, the Ratio IC50 (Homo sapiens [3]) was greater than 1e+06 and the Ki (Coagulation factor X) was greater than 50 µM. The Ratio IC50 (Homo sapiens [4]) was greater than 1e+06 and the Ratio IC50 (Homo sapiens [5]) was greater than 1e+06.
